Measured values: patent publication US20230293560A1, “METHOD FOR MODULATING THE BLADDER MICROBIOME TO IMPROVE BLADDER HEALTH” (Kimberly-Clark Worldwide, Inc., priority 2020, published 2023)

Legend:
E. faecalis = test: Plate assay screening of prebiotics; assay type: cell-based, Enterococcus faecalis; set-up: key: ++: if growth and fermentation was equal to or greater than the positive control; +: if growth and fermentation was less than the positive control; +: if weak or no growth or fermentation; +^2: Bacteria demonstrated growth but no fermentation on the prebiotic; conditions: E. faecalis KC16-7171-3, Bladder; MRS-based agar with glucose substituted by prebiotic
Description: (§1) Most of the prebiotic compounds were initially tested in a high throughput assay screening process, described further in the Test Methods section herein, but three prebiotics (as noted in Table 3) were tested using a plate assay screening process as described in the Test Methods section herein. The prebiotics were tested against the commensal bacterial species of Lactobacillus crispatus, Lactobacillus gasseri, and Lactobacillus jensenii and against the pathogenic bacterial species of Streptococcus anginosus and Enterococcus faecalis as shown in Table 2. The bacterial species were taken from different sources, listed as culture collection, bladder, and vagina. […]
(§2) • 1. […] Bacteria were enumerated on each agar and color changes were recorded. […] Small colonies are counted as S. anginosus and large colonies are counted as L. crispatus. • 10. […]

L. crispatus = test: Plate assay screening of prebiotics; assay type: cell-based, Lactobacillus crispatus; set-up: key: ++: if growth and fermentation was equal to or greater than the positive control; +: if growth and fermentation was less than the positive control; +: if weak or no growth or fermentation; +^2: Bacteria demonstrated growth but no fermentation on the prebiotic; conditions: MRS-based agar with glucose substituted by prebiotic
Description: as §1, §2

S. anginosus = test: Plate assay screening of prebiotics; assay type: cell-based, Streptococcus anginosus; set-up: key: ++: if growth and fermentation was equal to or greater than the positive control; +: if growth and fermentation was less than the positive control; +: if weak or no growth or fermentation; +^2: Bacteria demonstrated growth but no fermentation on the prebiotic; conditions: S. anginosus KC18-1131-3B, Bladder; MRS-based agar with glucose substituted by prebiotic
Description: as §1, §2

L. jensenii = test: Plate assay screening of prebiotics; assay type: cell-based, Lactobacillus jensenii; set-up: key: ++: if growth and fermentation was equal to or greater than the positive control; +: if growth and fermentation was less than the positive control; +: if weak or no growth or fermentation; +^2: Bacteria demonstrated growth but no fermentation on the prebiotic; conditions: L. jensenii KC17-4297-18, Bladder; MRS-based agar with glucose substituted by prebiotic
Description: as §1, §2

E. coli = test: Additional prebiotic screening against E. coli (plate assay); assay type: cell-based, Escherichia coli
Text: Additional screening of three prebiotic compounds of alpha-methyl-D-glucoside, isomaltulose, and alpha cyclodextrin was completed against pathogenic bacteria species Escherichia coli from both bladder and vaginal sources, as shown in Table 4. The growth of the bacterial species for this additional screening process against E. coli was not compared to growth of a control as in the screening process documented in Table 3, but was documented based on growth or no growth for the number of samples tested.
• 1. An in house bacterial agar was created based on MRS agar (Kaplan and Hutkins, 2000) where the glucose is substituted for the prebiotic to be tested (either dextran MW ˜6,000, alpha-cyclodextrin, glucomannan, or pectin), bromocresol purple was included as a pH indicator. • 2. Bacteria were enumerated on each agar and color changes were recorded. Method for Competition Assay (Modified from “In Vitro Evaluation of Nutrients that Selectively Confer a Competitive Advantage to Lactobacilli” Vongsa et al, Beneficial Microbes 2016) • 1. Create 2% w/v stock of prebiotic or positive control (glucose/dextrose) as described above. • 2. From a freezer stock subculture the bacteria twice into De Man, Rogosa and Sharpe (MRS) broth (BD Difco, Becton Dickinson, Franklin Lakes, NJ), 37° C., stationary, anaerobic, overnight. • 3. From the last subculture, plate onto an MRS agar plate for L. crispatus KC18-1173-1 or blood agar for S. anginosus KC18-1131-3B, grow 37° C., stationary, anaerobic, overnight. • 4. Create a bacterial suspension by using a sterile tipped swab to transfer colonies of bacteria into a PBS suspension blank to a 2 MacFarland for both species. • 5. Enumerate the starting culture. • 6. Add 9.8 mL of prebiotic media into a 15 mL conical tube. • 7. Add 100 μL of the diluted bacteria to the media, incubate at 37° C., anaerobic, 48 hours. • 8. Harvest 100 μL from the tube containing the prebiotic and plate onto MRS agar and tryptic soy agar (TSA). • 9. […] Small colonies are counted as S. anginosus and large colonies are counted as L. crispatus. • 10. […]

[1] = test system: commensal and pathogenic bacterial species; test: Prebiotic screening, summary in words across species; assay type: cell-based; conditions: commensal (L. crispatus, L. gasseri, L. jensenii) and pathogenic (S. anginosus, E. faecalis) species
Method in brief: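 Prebiotics at 2% w/v stock in API 50 CHL medium with bromocresol purple, inoculated with bacteria and read every 20 min for 24-48 h at OD430/590 (fermentation) and OD660 (growth), scored against a glucose control. Some tested on MRS-based agar with the prebiotic in place of glucose; competition assay with L. crispatus and S. anginosus incubated 48 h anaerobically at 37 °C, then enumerated on MRS and TSA.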

[2] = E. coli KC17-3970-4, Vagina, of 1 tested

OC[C@H]1O[C@@H]2O[C@H]3[C@H](O)[C@@H](O)[C@@H](O[C@H]4[C@H](O)[C@@H](O)[C@@H](O[C@H]5[C@H](O)[C@@H](O)[C@@H](O[C@H]6[C@H](O)[C@@H](O)[C@@H](O[C@H]7[C@H](O)[C@@H](O)[C@@H](O[C@H]1[C@H](O)[C@H]2O)O[C@@H]7CO)O[C@@H]6CO)O[C@@H]5CO)O[C@@H]4CO)O[C@@H]3CO [Alpha Cyclodextrin, Alpha-Cyclodextrin]
growth and fermentation vs positive control, Ef-2 (plate assay) (E. faecalis): +
growth and fermentation vs positive control, Lc-2 (plate assay) (L. crispatus; L. crispatus KC16-7134-3C, Bladder): +
growth and fermentation vs positive control, Lc-3 (plate assay) (L. crispatus; L. crispatus KC18-1173-1, Bladder): +^2
growth and fermentation vs positive control, Sa-2 (plate assay) (S. anginosus): +
growth and fermentation vs positive control, Lj-1 (plate assay) (L. jensenii): +
# fermented, Ec-3 (plate assay) (E. coli; [2]): 0
# grew, Ec-3 (plate assay) (E. coli; [2]): 1
growth of E. coli Ec-3, in words (E. coli; the one E. coli species tested (Ec-3), vaginal source): did grow
overall outcome of the screening of Table 3, in words [1]: growing at least some of the commensal bacterial species and either having less growth than the positive control or almost no growth of the pathogenic bacterial species
